Experimental data as given in patent US11427548B2 (Arvinas Operations, Inc., priority 2015, dated 2022).
Read-outs that look alike come from different tables or passages of the source. Each block holds one compound with its values, some of them ahead of it.

Target: T1, Androgen Receptor (Homo sapiens, UniProt P10275)
T1 construct: endogenous in cells; host or cells: VCaP cells
T1 sequence (P10275 1-920): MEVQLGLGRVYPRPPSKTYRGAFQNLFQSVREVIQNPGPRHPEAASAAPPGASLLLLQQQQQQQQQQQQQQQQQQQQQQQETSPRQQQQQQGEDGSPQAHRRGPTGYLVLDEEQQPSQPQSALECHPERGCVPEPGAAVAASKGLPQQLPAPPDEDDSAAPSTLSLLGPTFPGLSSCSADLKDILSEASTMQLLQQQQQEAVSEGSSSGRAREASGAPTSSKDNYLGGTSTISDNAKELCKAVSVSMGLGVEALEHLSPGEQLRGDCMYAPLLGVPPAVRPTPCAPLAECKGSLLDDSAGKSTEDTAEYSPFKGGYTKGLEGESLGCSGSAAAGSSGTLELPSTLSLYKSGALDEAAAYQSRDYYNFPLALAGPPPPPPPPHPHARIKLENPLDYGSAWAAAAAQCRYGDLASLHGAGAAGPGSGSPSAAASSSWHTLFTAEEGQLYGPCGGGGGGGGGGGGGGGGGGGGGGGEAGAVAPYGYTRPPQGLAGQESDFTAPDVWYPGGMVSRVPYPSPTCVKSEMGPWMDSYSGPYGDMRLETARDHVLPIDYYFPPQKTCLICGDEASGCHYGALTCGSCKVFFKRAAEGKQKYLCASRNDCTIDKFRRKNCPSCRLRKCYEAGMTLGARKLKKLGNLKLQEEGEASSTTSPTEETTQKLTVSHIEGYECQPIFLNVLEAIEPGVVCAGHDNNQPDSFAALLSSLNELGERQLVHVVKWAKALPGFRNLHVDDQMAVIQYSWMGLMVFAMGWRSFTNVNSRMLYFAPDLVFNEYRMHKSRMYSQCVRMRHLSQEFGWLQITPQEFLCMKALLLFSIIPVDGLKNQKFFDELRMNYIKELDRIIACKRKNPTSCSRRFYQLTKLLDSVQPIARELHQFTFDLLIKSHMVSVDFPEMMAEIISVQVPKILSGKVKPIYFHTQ
Experiment: Androgen Receptor ELISA assay (PathScan AR ELISA) in VCaP cells: AR degradation, Dmax and DC50
Assay type: cell-based
Procedure, shortened: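 VCaP cells in phenol red-free RPMI with 5% charcoal-stripped FBS were grown at least 3 days, then given compound as 7 half-log doses in 0.1% DMSO with 0.1 nM R1881 for 24 h. Lysates went into a sandwich AR ELISA with TMB read at 450 nm.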

[1] = VCaP cells; Table 36; read-out: VCaP DC50
[2] = VCaP, VCaP cells; Table 36; read-out: VCaP Dmax (%)
[3] = read-out: VCaP DC50; concentration that caused 50% Androgen Receptor degradation, VCaP cells (Table 32)
[4] = VCaP, highest percentage of Androgen Receptor degradation observed, VCaP cells (Table 32); read-out: VCaP Dmax (%)
[5] = concentration that caused 50% Androgen Receptor degradation, VCaP cells (Table 32); read-out: VCaP DC50
[6] = VCaP cells; Table 35; read-out: VCaP DC50
[7] = VCaP, VCaP cells; Table 35; read-out: VCaP Dmax (%)
[8] = read-out: VCaP DC50; VCaP cells; Table 36

DC50 [1]: 51 to 500 nM | Dmax [2]: 51 to 70%
Compound: Cc1ncsc1-c1ccc([C@H](C)NC(=O)[C@@H]2C[C@@H](O)CN2C(=O)[C@@H](NC(=O)CCCCCCCCCc2ccc(C(=O)N[C@H]3C(C)(C)[C@H](Oc4ccc(C#N)c(Cl)c4)C3(C)C)cc2)C(C)(C)C)cc1 [Example 764, (2S,4R)-1-((S)-2-(10-(4-(((1r,3r)-3-(3-chloro-4-cyanophenoxy)-2,2,4,4-tetramethylcyclobutyl)carbamoyl)phenyl)decan-amido)-3,3-dimethylbutanoyl)-4-hydroxy-N-((S)-1-(4-(4-methylthiazol-5-yl)phenyl)ethyl)pyrrolidine-2-carboxamide]

DC50 [1]: < 50 nM | Dmax [2]: > 71%
Compound: [2H]C(Nc1ccc(C(=O)N[C@H]2C(C)(C)[C@H](Oc3ccc(C#N)c(Cl)c3)C2(C)C)cc1)C([2H])([2H])C([2H])([2H])C([2H])([2H])C([2H])([2H])OCC(=O)N[C@H](C(=O)N1C[C@H](O)C[C@H]1C(=O)N[C@@H](C)c1ccc(-c2scnc2C)cc1)C(C)(C)C (stereo partly drawn) [Example 863]

Dmax [4]: > 71% | DC50 [5]: < 50 nM
Compound: Cc1ncsc1-c1ccc(CNC(=O)[C@@H]2C[C@@H](O)CN2C(=O)[C@@H](NC(=O)COCCCCCOc2ccc(C(=O)N[C@H]3C(C)(C)[C@H](Oc4ccc(C#N)c(Cl)c4)C3(C)C)cc2)C(C)(C)C)cc1 [Example 151, (2S,4R)-1-[(2S)-3,3-dimethyl-2-(2-{[5-(4-{[trans-3-(3-chloro-4-cyanophenoxy)-2,2,4,4-tetramethylcyclobutyl]carbamoyl}phen-oxy)pentyl]oxy}acetamido)butanoyl]-4-hydroxy-N-{[4-(4-methyl-1,3-thiazol-5-yl)phenyl]methyl}pyrrolidine-2-carboxamide]

DC50 [6]: < 50 nM | Dmax [7]: 26 to 50%
Compound: CC(C)(C)[C@H](NC(=O)COCCCCCNc1ccc(C(=O)N[C@H]2C(C)(C)[C@H](Oc3ccc(C#N)c(Cl)c3)C2(C)C)cc1)C(=O)N1C[C@H](O)C[C@H]1C(=O)NCc1ccc(-c2ncccn2)cc1 [Example 535]

DC50 [6]: < 50 nM | Dmax [7]: > 71%
Compound: CNC[C@H](NC(=O)[C@@H]1C[C@@H](O)CN1C(=O)[C@@H](NC(=O)COCCCCCOc1ccc(C(=O)N[C@H]2C(C)(C)[C@H](Oc3ccc(C#N)c(Cl)c3)C2(C)C)cc1)C(C)(C)C)c1ccc(-c2scnc2C)cc1 [Example 515]

Dmax [4]: > 71% | DC50 [5]: < 50 nM
Compound: Cc1ncsc1-c1ccc(CNC(=O)[C@@H]2C[C@@H](O)CN2C(=O)[C@@H](NC(=O)COCCOc2ccc(Oc3ccc(C(=O)N[C@H]4C(C)(C)[C@H](Oc5ccc(C#N)c(Cl)c5)C4(C)C)cc3)cc2)C(C)(C)C)cc1 [Example 185, (2S,4R)-1-[(2S)-3,3-dimethyl-2-(2-{2-[4-(4-{[trans-3-(3-chloro-4-cyanophenoxy)-2,2,4,4-tetramethylcyclobutyl]carbamoyl}phenoxy)phenoxy]ethoxy}acetamido)butanoyl]-4-hydroxy-N-{[4-(4-methyl-1,3-thiazol-5-yl)phenyl]methyl}pyrrolidine-2-carboxamide]

DC50 [1]: > 501 nM | Dmax [2]: 26 to 50%
Compound: Cc1ncsc1-c1ccc([C@H](C)NC(=O)[C@@H]2C[C@@H](O)CN2C(=O)[C@@H](NC(=O)CCCCc2ccc(C(=O)N[C@H]3C(C)(C)[C@H](Oc4ccc(C#N)c(Cl)c4)C3(C)C)cc2)C(C)(C)C)cc1 [Example 755, (2S,4R)-1-((S)-2-(5-(4-(((1r,3S)-3-(3-chloro-4-cyanophenoxy)-2,2,4,4-tetramethylcyclobutyl)carbamoyl)phenyl)pentan-amido)-3,3-dimethylbutanoyl)-4-hydroxy-N-((S)-1-(4-(4-methylthiazol-5-yl)phenyl)ethyl)pyrrolidine-2-carboxamide]

The remaining lines, values behind:

Compound: CC(C)(C)[C@H](NC(=O)COCCCCOc1ccc(-c2ccc(N3C(=S)N(c4ccc(C#N)c(C(F)(F)F)c4)C(=O)C3(C)C)cc2)cc1)C(=O)N1C[C@H](O)C[C@H]1C(=O)NCc1ccc(-c2ocnc2Cl)cc1 [Example 105, (2S,4R)-N-{[4-(4-chloro-1,3-oxazol-5-yl)phenyl]methyl}-1-[(2S)-2-(2-{4-[4-(4-{3-[4-cyano-3-(trifluoromethyl)phenyl]-5,5-dimethyl-4-oxo-2-sulfanylideneimidazolidin-1-yl}phenyl)phenoxy]butoxy}acetamido)-3,3-dimethylbutanoyl]-4-hydroxypyrrolidine-2-carboxamide]
Dmax (VCaP, read-out: VCaP Dmax (%)): 51 to 70% | DC50 [3]: 51 to 500 nM

Compound: Cc1cc(OCCCCOCC(=O)N[C@H](C(=O)N2C[C@H](O)C[C@H]2C(=O)NCc2ccc(-c3scnc3C)cc2)C(C)(C)C)ccc1-c1ccc(N2C(=S)N(c3ccc(C#N)c(C(F)(F)F)c3)C(=O)C2(C)C)cc1 [Example 136, (2S,4R)-1-[(2S)-2-(2-{4-[4-(4-{3-[4-cyano-3-(trifluoromethyl)phenyl]-5,5-dimethyl-4-oxo-2-sulfanylideneimidazolidin-1-yl}phenyl)-3-methylphenoxy]butoxy}acetamido)-3,3-dimethylbutanoyl]-4-hydroxy-N-{[4-(4-methyl-1,3-thiazol-5-yl)phenyl]methyl}pyrrolidine-2-carboxamide]
Dmax (VCaP, read-out: VCaP Dmax (%)): > 71% | DC50 [3]: < 50 nM

Compound: Cc1ncsc1-c1ccc([C@H](C)NC(=O)[C@@H]2C[C@@H](O)CN2C(=O)[C@@H](c2cc(CCCN3CCN(c4ccc(C(=O)N[C@H]5C(C)(C)[C@H](Oc6ccc(C#N)c(Cl)c6)C5(C)C)cn4)CC3)no2)C(C)C)cc1 [Example 819, N-((1r,3r)-3-(3-chloro-4-cyanophenoxy)-2,2,4,4-tetramethylcyclobutyl)-6-(4-(3-(5-((R)-1-((2S, 4R)-4-hydroxy-2-(((S)-1-(4-(4-methylthiazol-5-yl)phenyl)ethyl)carbamoyl)pyrrolidin-1-yl)-3-methyl-1-oxobutan-2-yl)isoxazol-3-yl)propyl)piperazin-1-yl) nicotinamide]
DC50 [1]: < 50 nM | Dmax [2]: > 71%

Compound: CC(C)(C)[C@H](NC(=O)COCCCCNc1ccc(C(=O)N[C@H]2C(C)(C)[C@H](Oc3ccc(C#N)c(Cl)c3)C2(C)C)cc1)C(=O)N1C[C@H](O)C[C@H]1C(=O)NCc1ccc(C#N)cc1 [Example 547]
DC50 [6]: < 50 nM | Dmax [7]: 51 to 70%

Compound: Cc1ncoc1-c1ccc(CNC(=O)[C@@H]2C[C@@H](O)CN2C(=O)[C@@H](NC(=O)COCCCC(=O)Nc2ccc(-c3ccc(N4C(=S)N(c5ccc(C#N)c(C(F)(F)F)c5)C(=O)C4(C)C)cc3)cc2)C(C)(C)C)cc1 [Example 135, (2S,4R)-1-[(2S)-2-[2-(3-{[4-(4-{3-[4-cyano-3-(trifluoromethyl)phenyl]-5,5-dimethyl-4-oxo-2-sulfanylideneimidazolidin-1-yl}phenyl)phenyl]carbamoyl}pro-poxy)acetamido]-3,3-dimethylbutanoyl]-4-hydroxy-N-{[4-(4-methyl-1,3-oxazol-5-yl)phenyl]methyl}pyrrolidine-2-carboxamide]
Dmax (VCaP, read-out: VCaP Dmax (%)): 51 to 70% | DC50 [3]: < 50 nM

Compound: Cc1ncsc1-c1ccc([C@H](C)NC(=O)[C@@H]2C[C@@H]3CN2C(=O)[C@H](C(C)(C)C)NC(=O)COCCCOCCC(CCOc2ccc(N4C(=S)N(c5ccc(C#N)c(C(F)(F)F)c5)C(=O)C4(C)C)cc2)OC(=O)CCc2cn(nn2)CCCCCC(=O)O3)cc1 (stereo partly drawn) [Example 621, (93R,95S,11S,Z)-11-(tert-butyl)-22-(2-(4-(3-(4-cyano-3-(trifluoromethyl)phenyl)-5,5-dimethyl-4-oxo-2-thioxoimidazolidin-1-yl)phenoxy)ethyl)-N-((S)-1-(4-(4-methylthiazol-5-yl)phenyl)ethyl)-7,10,13,24-tetraoxo-11H-8,15,19,23-tetraoxa-12-aza-1(1,4)-triazola-9(3,1)-pyrrolidinacyclohexaco-saphane-95-carboxamide]
Dmax (VCaP, read-out: VCaP Dmax (%)): < 25% | DC50 [8]: > 501 nM

Compound: Cc1ncsc1-c1ccc([C@H](C)NC(=O)[C@@H]2C[C@@H](O)CN2C(=O)[C@@H](NC(=O)OCc2ccccc2)[C@@H](C)OCCCCCCOc2ccc(N3C(=O)N(c4ccc(C#N)c(C(F)(F)F)c4)C(=O)C3(C)C)cc2)cc1 [Example 677, benzyl ((2S,3R)-3-((6-(4-(3-(4-cyano-3-(trifluoromethyl)phenyl)-5,5-dimethyl-4-oxo-2-thioxoimidazolidin-1-yl)phenoxy)hexyl)oxy)-1-((2S,4R)-4-hydroxy-2-(((S)-1-(4-(4-methylthiazol-5-yl)phenyl)ethyl)carbam-oyl)pyrrolidin-1-y)-1-oxobutan-2-yl)carbamate]
DC50 [8]: > 501 nM
